Holding throughout (test): inhibition of tumour cell growth, NCI panel, 48 h
Assay [1] concerns NCI-H226.
Assay [2] concerns HCT-15.
Assay [3] deals with TK-10.
The subject of assay [4] is HOP-62.
The test system of assay [5] is NCI/ADR-RES.
Assay [6] relates to ACHN.
Assay [7] has as its system HOP-92.
For assay [8], the system named is SNB-19.
Assay [9] relates to NCI-H23.
Assay [10] has as its system BT-549.
Assay [11] has as its system OVCAR-8.
Assay [12] concerns HT-29.
Assay [13] has as its system SK-MEL-5.
Assay [14] relates to UO-31.
For assay [15], the system named is OVCAR-4.
The test system of assay [16] is 786-0.
Assay [17] concerns IGROV-1.
In assay [18] the test system is DU-145.
The subject of assay [19] is SK-OV-3.

The structures appear in SMILES notation.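 96-well plates; 48 h exposure; 5 concentrations. Endpoints by linear interpolation between flanking doses. Not reached: highest tested concentration assigned. GI50 is the concentration that inhibits growth by half.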 Active and inactive are the calls of the source. Cut-off read from the data, not from the text of the source: active = GI50 up to about 1.1 µM and inactive = higher.

Take `CSc1ccc(NC(=O)Nc2cc(C)ccn2)cc1`: the GI50 in [1] is > 100 µM (inactive); in assay [2], above 100 µM; in [3], > 100 µM (inactive); in [4], > 100 µM (inactive); in assay [5], > 100 µM (inactive); in assay [6] it was > 100 µM (inactive). Further, the GI50 in assay [7], in assay [8], in assay [9], in [10], in assay [11] and in assay [12] was > 100 µM (inactive) in each case. For the same compound, the GI50 in [13], in [14], in assay [15], in assay [16], in [17] and in assay [18] was > 100 µM (inactive) in each case. In assay [19], the GI50 was > 100 µM (inactive).

As to `C[C@]12CC[C@@H]3c4cc(OCC(F)(F)F)c(O)cc4C(=O)C[C@H]3[C@@H]1CC[C@@H]2O`, the GI50 in [1] was 22.5 µM (inactive); in assay [2], 4.18 µM; in assay [3] it was 18.7 µM (inactive); in [4] it was 12.6 µM (inactive); in [5], 6.35 µM (inactive); in [6], 20.7 µM (inactive). In addition, the GI50 was 20.7 µM (inactive) in assay [7]; 13.5 µM (inactive) in assay [8]; 12 µM (inactive) in [9]; 6.34 µM (inactive) in [10]; 23.1 µM (inactive) in assay [11]; 12.9 µM (inactive) in assay [12]. Moreover, the GI50 in assay [13] was 5.87 µM (inactive); in assay [14] it was 13.6 µM (inactive); in assay [15], 27.2 µM (inactive); in [16] it was 10.8 µM (inactive); in assay [17] it was 13.6 µM (inactive); in [18], 17.3 µM (inactive). Besides, the GI50 in assay [19] was 10.6 µM (inactive).

Consider `Cc1cc(NC2=CC(=O)C(=O)c3ccccc32)no1`, for which the GI50 in [1] is 17.6 µM (inactive); in assay [2] it was 3.62 µM; in assay [3], 26.1 µM (inactive); in [4] it was 17.6 µM (inactive); in assay [5], 3.87 µM (inactive); in [6] it was 11.7 µM (inactive). Moreover, the GI50 in [7] is 16.4 µM (inactive); in [8], 16.2 µM (inactive); in assay [9], 1.54 µM (inactive); in assay [10], 5.53 µM (inactive); in assay [11] it was 6.81 µM (inactive); in [12], 13 µM (inactive). Moreover, the GI50 is 2.26 µM (inactive) in assay [13]; 7.94 µM (inactive) in [14]; 8.22 µM (inactive) in assay [15]; 15.1 µM (inactive) in assay [16]; 8.28 µM (inactive) in assay [17]; 16.4 µM (inactive) in assay [18]. Also, in assay [19], the GI50 is 19.4 µM (inactive).

Take `CCC[C@H](N[S+]([O-])c1ccc(C)cc1)C(C(=O)OCC)=C(c1ccccc1)c1ccccc1` (some centres not stated): the GI50 in assay [1] is 26.1 µM (inactive); in assay [2], 25.2 µM; in [3], 28.6 µM (inactive); in [4] it was 19 µM (inactive); in assay [5], 27.7 µM (inactive); in assay [6], 22.4 µM (inactive). Moreover, the GI50 in assay [7] was 15.1 µM (inactive); in assay [8] it was 44.3 µM (inactive); in assay [9], 27.1 µM (inactive); in assay [10], 21.2 µM (inactive); in assay [11], 27.4 µM (inactive); in assay [12], 13.9 µM (inactive). The GI50 is 22.1 µM (inactive) in assay [13]; 14.8 µM (inactive) in [14]; 16.7 µM (inactive) in assay [15]; 18.1 µM (inactive) in [16]; 25.1 µM (inactive) in [17]; 18.9 µM (inactive) in assay [18]. In [19], the GI50 was 24.6 µM (inactive).

On to `C=CCOc1ccccc1C1(O)c2ccccc2C2=NCCCN21` (configuration not stated), for which the GI50 was 31.8 µM (inactive) in assay [1]; above 100 µM in assay [2]; 90.8 µM (inactive) in [3]; 18.9 µM (inactive) in assay [4]; > 100 µM (inactive) in [5]; 37.8 µM (inactive) in assay [6]. Besides, the GI50 in [7] is 56.9 µM (inactive); in assay [8], 33.5 µM (inactive); in [9], 30.8 µM (inactive); in assay [10], 81.1 µM (inactive); in assay [11], 19.5 µM (inactive); in [12] it was 19.5 µM (inactive). In addition, the GI50 was 25.6 µM (inactive) in assay [13]; > 100 µM (inactive) in assay [14]; 70.3 µM (inactive) in assay [15]; 47.3 µM (inactive) in assay [16]; 16.8 µM (inactive) in [17]; 57.9 µM (inactive) in assay [18]. For the same compound, in [19], the GI50 is > 100 µM (inactive).

Consider `C(#Cc1ccccc1)SC1=C(c2ccccc2)S/C(=C(\SC#Cc2ccccc2)c2ccccc2)S1`, for which the GI50 was > 100 µM (inactive) in assay [1]; above 100 µM in assay [2]; > 100 µM (inactive) in assay [3]; > 100 µM (inactive) in [4]; > 100 µM (inactive) in [5]; > 100 µM (inactive) in assay [6]. The GI50 in assay [7], in assay [8], in assay [9], in assay [10], in [11] and in assay [12] was > 100 µM (inactive) throughout. For the same compound, the GI50 in [13], in assay [14], in assay [15], in assay [16], in assay [17] and in assay [18] was > 100 µM (inactive) in each case. Also, the GI50 in assay [19] is > 100 µM (inactive).

With `Cc1c(O)c(OC2OC(CO)C(O)C(O)C2O)cc2c1CC[C@@H]1C2(C)C(=O)C[C@]2(C)[C@@H]([C@@](C)(O)C(O)/C=C/C(C)(C)O)[C@H](O)C[C@@]12C` (some centres not stated), the GI50 in [1] was > 100 µM (inactive); in assay [2] it was above 100 µM; in assay [3], > 100 µM (inactive); in [4] it was > 100 µM (inactive); in [5] it was > 100 µM (inactive); in [6] it was > 100 µM (inactive). Besides, the GI50 in assay [7], in [8], in assay [9], in assay [10], in [11] and in assay [12] was > 100 µM (inactive) in each case. In addition, the GI50 in [13], in [14], in [15], in [16], in assay [17] and in assay [18] was > 100 µM (inactive) each time. For the same compound, the GI50 in assay [19] was > 100 µM (inactive).

`Cc1cnc2nc(-c3sccc3C)cc(O)c2c1`: the GI50 in assay [1] is 4.14 µM (inactive); in [2], 1.57 µM; in [3] it was > 33.7 µM (inactive); in [4], 5.08 µM (inactive); in assay [5] it was 2.31 µM (inactive); in assay [6] it was 8.85 µM (inactive). Moreover, the GI50 in assay [7] is 97.3 µM (inactive); in [8] it was 2.85 µM (inactive); in [9], 3.7 µM (inactive); in assay [10], 9.42 µM (inactive); in [11] it was 4.06 µM (inactive); in [12], 2.4 µM (inactive). In addition, the GI50 in [13] was 1.23 µM (inactive); in [14], 6.25 µM (inactive); in assay [15], > 100 µM (inactive); in assay [16] it was 4.1 µM (inactive); in [17] it was 1.49 µM (inactive); in assay [18] it was 4.74 µM (inactive). The GI50 in assay [19] is 4.03 µM (inactive).

Source of the values: ChEMBL document CHEMBL1201862, “PubChem BioAssay data set” (2004).
